Here are results for 1 molecule from article PMC11582173, “Synthesis, cytotoxicity, anti-inflammatory, anti-metastatic and anti-oxidant activities of novel chalcones incorporating 2-phenoxy-N-arylacetamide and thiophene moieties: induction of apoptosis in MCF7 and HEP2 cells” (Naunyn-Schmiedeberg's Archives of Pharmacology, 2024).

Type in all cases: cell-based, human
One test concerns MMP2. Briefly: ELISA, MMP2 concentration. Here is the method: (§1) The concentrations of matrix metalloproteinase-2 (MMP2), matrix metalloproteinase-9 (MMP9), Bcl2, BAX, P53, Malondialdehyde (MDA), Glutathione (GSH), caspase 8, caspase 9 and IL-6 were measured quantitatively in 5c treated MCF7 and HEP2 cells using ELISA (Enzyme-Linked Immunosorbent Assay) (Table 4). Gelatinases are a collective word for MMP-2 and MMP-9, where MMP-2 is gelatinase-A and MMP-9 is gelatinase-B. Solid tumor invasion, metastasis, and angiogenesis have long been linked to gelatinases (Das et al. [2021]). […] Bcl2 is a crucial protein that targets apoptosis inhibition. It is regarded as a predictive biomarker or therapeutic target in the diagnosis of cancer due to its broad expression in a variety of cancers (Porter et al. [2009]). […] The pro-apoptotic protein BAX permeabilizes the mitochondrial outer membrane by changing from a cytosolic monomer to a hazardous oligomer triggering the apoptosis process (Fulda and Debatin [2006]). […] P53 transcription factor performs an essential tumor suppressor role by coordinating a wide range of physiological responses, including DNA repair, cell cycle arrest, cellular senescence, cell death, cell differentiation, and metabolism (Liebl and Hofmann [2021]). It was activated in MCF7 and HEP2-treated cells with values (4.28 and 3.109 ng/mL), respectively, compared to their controls (3.44 and 2.06 ng/mL). […]

In the next test the test system is Bcl2. The test can be described thus: ELISA, Bcl2 concentration. Here is the method:
as §1
A general note: ELISA stands for enzyme-linked immunosorbent assay.

The subject of another test is Caspase 8. The test can be described thus: ELISA, Caspase 8 concentration. How it is done: as §1
The test system of a further test is HEP2 cells. The test can be described thus: Flow cytometric analysis of cell cycle, HEP2. The conditions noted are these: HEP2, IC50 of 5c, 48 h. How it is done:
In the G0-G1 stage, the percentage of 5c-treated cells declined to 55.4% as opposed to 57.6% of untreated control cells. It was found in a previous work that lutein-induced G2/M phase arrest in A549 and PC-9 cells (Di et al. [2019]).
In DMEM-supplemented media, cells were plated in 12-well plates at a cell density of 6–8×10^5 per well. After twenty-four hours, cells were cultured for an additional 48 hours with the IC50 of the target compound. The untreated cells were used as a negative control. After 48 h of incubation, the treated cells were centrifuged at 1,200 rpm and 4 °C for 10 min. After discarding the supernatant, the wells were then given a single phosphate-buffered saline (PBS) wash and then centrifuged for 10 min at 1,200 rpm. Trypsin/EDTA was used to collect the cells, and after one PBS wash, they were resuspended in 0.5 mL of 0.05% Triton X-100 for 10 min at room temperature. Each cell suspension was stained by being given 1 mL of 50 µg/mL propidium iodide (PI) to be left at room temperature in the darkness for 20 minutes. The analysis of the cell cycle was done by a flow cytometer (Becton Dickenson (BD) FACSCalibur, USA) (Michalkova et al. [2022]).

The structures appear in SMILES notation. Values joined by “and” are separate entries in the source; they are usually repeats but may differ in a detail not shown here. Equal values may be shown once.

On to `COc1ccc(NC(=O)COc2ccc(C=CC(=O)c3cccs3)cc2)cc1` [Compound 5c, N-(4-Methoxyphenyl)-2-(4-(3-oxo-3-(thiophen-2-yl)prop-1-en-1-yl)phenoxy)acetamide], for which the MMP2 concentration is 142.5 pg/mL and 142.5 ± 15.03 pg/mL in the test with MMP2 (5c treated HEP2 cells, untreated 461.58±45.11); 185.125 pg/mL and 185.125 ± 30.07 pg/mL with MMP2 (5c treated MCF7 cells, untreated 466.90±22.55). Further, the Bcl2 concentration in the test with Bcl2 (5c treated HEP2 cells, untreated 2299.4±170.35) is 1809.34 pg/mL and 1809.34 ± 27.45 pg/mL; with Bcl2 (5c treated MCF7 cells, untreated 2479.8±17.08), 2089.96 pg/mL and 2089.96 ± 17.97 pg/mL. The Caspase8 concentration in the test on Caspase 8 (5c treated HEP2 cells, untreated 0.187±0.025) is 2.27 ng/mL and 2.27 ± 0.142 ng/mL; in the test on Caspase 8 (5c treated MCF7 cells, untreated 0.162±0.0203), 2.13 ng/mL and 2.13 ± 0.268 ng/mL. Further, the “Percentage of DNA in G2-M phase” value in the test with HEP2 cells (untreated control 2.205±0.10607) is 3.56% and 3.565±0.1485%. Further, the “Percentage of DNA in S phase” value in the test on HEP2 cells (untreated control 40.095±0.36062) was 40.96% and 40.96±0.08485%. Moreover, the “Percentage of DNA in G0-G1 phase” value in the test on HEP2 cells (untreated control 57.67±0.21213) was 55.4% and 55.475±0.233%.
